Measured values from patent publication US7091026B2, “Artificial endonuclease” (University of Iowa Research Foundation, priority 2001, dated 2006).
Where no end group is shown, it is not given here.

What was measured:
[1] = test system: supercoiled pBR322 plasmid DNA; assay: DNA gel shift assay (agarose gel electrophoresis); type: binding; conditions: 5–25 μM ligand, in words
Experimental: DNA Gel Shift Assays. The affinity of EuP3, EuP2, and each free peptide for supercoiled plasmid DNA was examined by agarose gel electrophoresis. Plasmid (pBR322, New England Biolabs, Inc.) was incubated for 15 minutes at room temperature with increasing concentrations of each ligand (5–25 μM), prior to the addition of loading dye. Each lane contained 1 μg plasmid (50 μM base pairs) in 10 mM Tris buffer at pH 8.0.

[2] = target: P4a (34-residue synthetic chimeric peptide: alpha2 and alpha3 of engrailed, minus the last turn of alpha2 and the beta-turn, with calmodulin loop I); assay: measured dissociation constant, method not stated; self-association of the Eu-bound peptide

Molecule	gel shift / affinity for supercoiled plasmid DNA [1]	gel shift / affinity for supercoiled plasmid DNA ([1]; listed as free metal)	Kdim (dimerization constant) [2] [µM]
[Cl][Eu]([Cl])[Cl] [EuCl3]	not	not seen	
TERRRFDKDGNGYISAAELRHVKIWFQNKRAKIK (also: also used as Eu(III)-bound form (EuP4a))			> 300
